Results from US5002933A, “Hexapeptide and medicinal preparation produced from it to treat erosive and ulcerative lesions of gastrointestinal tract” (priority 1987, dated 1991).
Square brackets hold non-standard residues; d marks the D form. Ends that are not written are not given here.

Experiments:
[1] = tested on: cysteamine-induced duodenal ulcer; assay: cysteamine-induced duodenal ulcer, oral administration; format: in vivo, rats; details: for Lesion scoring: given immediately and 6 h after cysteamine, score 0-4, 24 h; for Incidence: ratio of animals with ulcer to survivals; for Ulcer index: severity of lesion + doubled incidence; for Ulcer index reduction, %: versus control group
Protocol: The efficacy of the proposed hexapeptide has been studied on experimental animals. Vister male rats were used to compare the therapeutic efficacy of the proposed preparation with that of the known preparations.
Duodenal ulcer was induced in experimental animals by subcutaneous administration of cysteamine hydrochloride in a dose of 350 mg per kg body weight (in 0.5 ml of physiological saline). The proposed preparation was given to the rats immediately and in 6 hours following the administration of the provoking agent. The proposed hexapeptide was given into the stomach through a gastric tube in doses of 10 and 100 mcg/kg; the known hexapeptide (U.S. Pat. No. 4,565,705) was given in a dose of 100 mcg/kg (cimetidine in a dose 10 mg/kg) in 0.5 ml of a 3 percent milk (five-fold diluted in physiological saline). Control animals were given 0.5 ml of a 3 percent milk diluted in a 5-fold volume of physiological saline immediately after administration of cysteamine hydrochloride and 6 hours later. The animals were sacrificed by decapitation in 24 hours after administration of cysteamine hydrochloride and the condition of the duodenal mucosa was assessed in them.
The severity of lesion was determined for each group of the rats using the following scoring system: 0--absense of ulceration; 1--erosion; 2--single ulcer; 3--multiple ulcers; 4--perforating ulcer. Besides, the incidence of lesion was determined in each group: the ratio of the animals with ulcer to the total number of survivals by the end of the experiment was determined. A conventional ulcer index (severity of lesion+doubled incidence of affections) was thus derived as the summary involvement index.
The obtained findings were treated statistically using the Student t-criterion (for severity of lesion) and Pirson X^2 criterion (for the incidence). The differences at the level of 95 percent significance were taken as trustworthy (P<0.05).

[2] = tested on: indomethacin-induced ulcers of the small intestine; assay: indomethacin-induced ulcers of the small intestine; format: in vivo, rats; details: for Average number of ulcers: 30-cm distal small intestine, 24 h after indomethacin 20 mg/kg
Protocol: The proposed hexapeptide was also studied in experiments with indomethacin-induced ulcers of the small intestine. The efficacy of the proposed hexapeptide was compared with that of sulfasalazine. Indomethacin was given to the rats into the stomach through a tube in a dose of 20 mg/kg, in the form of a suspension in 0.5 ml of physiological saline. The proposed hexapeptide or sulfasalazine were given in doses of 100 μg/kg or 200 mg/kg respectively immediately after administration of indomethacin or 6 hours later. Indomethacin was given with 0.5 ml of a 3% milk diluted in 5 volumes of physiological saline. The same amount of the milk solution was given to the control animals. The rats were decapitated in 24 hours after the administration of indomethacin and the number of ulcers on the mucosa of a 30-cm long distal small intestine was counted. […] The average number of ulcers was determined for each group of the animals.
The findings were processed statistically using the Student t-criterion. Differences at the significance level of 95 % were taken as trustworthy (at P<0.05).

[3] = acute toxicity tests; format: in vivo
[4] = solubility of the hexapeptide powder; format: physicochemical
[5] = blood cell composition and haemodynamic indices in the experiments; format: in vivo; details: in the experiments with the proposed hexapeptide

## CN/C(=N/CCSCc1nc[nH]c1C)NC#N [cimetidine, reference compound]
[1]; 10 mg/kg per os
  Lesion scoring: 1.00
  Incidence: 0.33
  Ulcer index: 1.66
  Ulcer index reduction, %: 57%

## O=C(O)c1cc(/N=N/c2ccc(S(=O)(=O)Nc3ccccn3)cc2)ccc1O [sulfasalazine, reference compound]
[2]; 200 mg/kg, versus control
  decrease of the number of ulcers in the intestine: 46%
[2]; sulfasalazine 200 mg/kg
  Average number of ulcers: 27.50 ± 5.28

## Y[dA]GFLE [proposed hexapeptide]
[3]
  LD50: 250 mg/kg
[4]; distilled water, physiological saline, alcohol
  solubility: readily soluble
[4]; ether, ethyl actate, benzene, or hexane
  solubility: insoluble
[5]
  changes in the cell composition of the blood: No changes
  changes in the main haemodynamic indices: No changes
[2]; 100 μg/kg
  Average number of ulcers: 23.40 ± 5.36
[2]; 100 μg/kg, versus control
  decrease of the average number of ulcers in the distal small intestine: 52%
[2]; dose comparison, 100 μg/kg versus sulfasalazine 200 mg/kg, small intestine
  anti-ulcer activity relative to sulfasalazine: 2000 times
[1]; 10 μg/kg per os
  Lesion scoring: 1.60
  Incidence: 0.80
  Ulcer index: 3.20
  Ulcer index reduction, %: 18%
[1]; 100 μg/kg per os
  Lesion scoring: 0.83
  Incidence: 0.31
  Ulcer index: 1.45
  Ulcer index reduction, %: 63%
[1]; dose comparison, 100 μg/kg versus cimetidine 10 mg/kg, duodenum
  anti-ulcer activity relative to cimetidine: 100 times
